What follows are compounds tested on NL-RLuc virus (recombinant NL4-3 HIV with Renilla Luciferase gene) (assay: Inhibition of HIV replication (NL-RLuc virus in MT-2 cells, luciferase readout)). Details: MT2, 120 h.
Format: cell-based, Human immunodeficiency virus (HIV)
In short: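 MT-2 cells infected with NL4-3-derived virus carrying Renilla luciferase in place of part of nef, grown 5 days with serial compound dilutions in RPMI 1640/10% FBS. Virus growth read as luciferase expression. EC50 from median effect equation, at least 2 experiments.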
Compound Cc1nc(C)c([C@H](OC(C)(C)C)C(=O)O)c(N2CCC(C)(C)CC2)c1-c1ccc2c(c1)CCN(c1ncc(F)cc1F)C2 [Example 72, (S)-2-(tert-Butoxy)-2-(5-(2-(3,5-difluoropyridin-2-yl)-1,2,3,4-tetrahydroisoquinolin-6-yl)-4-(4,4-dimethylpiperidin-1-yl)-2,6-dimethylpyridin-3-yl)acetic Acid] has an EC50 of 8 nM.
In the case of Cc1nc(C)c([C@H](OC(C)(C)C)C(=O)O)c(N2CCC(C)(C)CC2)c1-c1ccc2c(c1)CCN(c1cnnc(N3CCOCC3)c1)C2 [Example 73, (S)-2-(tert-Butoxy)-2-(4-(4,4-dimethylpiperidin-1-yl)-2,6-dimethyl-5-(2-(6-morpholinopyridazin-4-yl)-1,2,3,4-tetrahydroisoquinolin-6-yl)pyridin-3-yl)acetic Acid], the EC50 is reported as 69 nM.
With Cc1nc(C)c([C@H](OC(C)(C)C)C(=O)O)c(N2CCC(C)(C)CC2)c1-c1ccc2c(c1)CCN(c1cncc(N3CCOCC3)n1)C2 [Example 74, (S)-2-(tert-Butoxy)-2-(4-(4,4-dimethylpiperidin-1-yl)-2,6-dimethyl-5-(2-(6-morpholinopyrazin-2-yl)-1,2,3,4-tetrahydroisoquinolin-6-yl)pyridin-3-yl)acetic Acid] the EC50 was 1 nM.
Compound Cc1nc(C)c([C@H](OC(C)(C)C)C(=O)O)c(N2CCC(C)(C)CC2)c1-c1ccc2c(c1)CCN(c1ccnc(N3CCC(O)CC3)n1)C2 [Example 75, (S)-2-(tert-Butoxy)-2-(4-(4,4-dimethylpiperidin-1-yl)-5-(2-(2-(4-hydroxypiperidin-1-yl)pyrimidin-4-yl)-1,2,3,4-tetrahydroisoquinolin-6-yl)-2,6-dimethylpyridin-3-yl)acetic Acid] has an EC50 of 3 nM.
Cc1nc(C)c([C@H](OC(C)(C)C)C(=O)O)c(N2CCC(C)(C)CC2)c1-c1ccc2c(c1)CCN(c1ccnc(N3CCC(F)(F)CC3)n1)C2 [Example 76, (S)-2-(tert-Butoxy)-2-(5-(2-(2-(4,4-difluoropiperidin-1-yl)pyrimidin-4-yl)-1,2,3,4-tetrahydroisoquinolin-6-yl)-4-(4,4-dimethylpiperidin-1-yl)-2,6-dimethylpyridin-3-yl)acetic Acid] showed an EC50 of 3 nM.
In the case of Cc1nc(C)c([C@H](OC(C)(C)C)C(=O)O)c(N2CCC(C)(C)CC2)c1-c1ccc2c(c1)CCN(c1ncnc(N3CCOCC3)c1C)C2 [Example 77, (S)-2-(tert-Butoxy)-2-(4-(4,4-dimethylpiperidin-1-yl)-2,6-dimethyl-5-(2-(5-methyl-6-morpholinopyrimidin-4-yl)-1,2,3,4-tetrahydroisoquinolin-6-yl)pyridin-3-yl)acetic Acid], the EC50 is reported as 0.6 nM.
CCOc1ncnc(N2CCc3cc(-c4c(C)nc(C)c([C@H](OC(C)(C)C)C(=O)O)c4N4CCC(C)(C)CC4)ccc3C2)c1C [Example 78, (S)-2-(tert-Butoxy)-2-(4-(4,4-dimethylpiperidin-1-yl)-5-(2-(6-ethoxy-5-methylpyrimidin-4-yl)-1,2,3,4-tetrahydroisoquinolin-6-yl)-2,6-dimethylpyridin-3-yl)acetic Acid] was tested, and the EC50 was 5 nM.
For COc1cccc(-c2cc(N3CCc4cc(-c5c(C)nc(C)c([C@H](OC(C)(C)C)C(=O)O)c5N5CCC(C)(C)CC5)ccc4C3)ncn2)c1 [Example 79, (S)-2-(tert-Butoxy)-2-(4-(4,4-dimethylpiperidin-1-yl)-5-(2-(6-(3-methoxyphenyl)pyrimidin-4-yl)-1,2,3,4-tetrahydroisoquinolin-6-yl)-2,6-dimethylpyridin-3-yl)acetic Acid], the EC50 was 11 nM.
Cc1nc(C)c([C@H](OC(C)(C)C)C(=O)O)c(N2CCC(C)(C)CC2)c1-c1ccc2c(c1)CCN(c1nccc(O)n1)C2 [Example 80, (S)-2-(tert-Butoxy)-2-(4-(4,4-dimethylpiperidin-1-yl)-5-(2-(4-hydroxypyrimidin-2-yl)-1,2,3,4-tetrahydroisoquinolin-6-yl)-2,6-dimethylpyridin-3-yl)acetic Acid] was tested, and the EC50 was 380 nM.
With Cc1nc(C)c([C@H](OC(C)(C)C)C(=O)O)c(N2CCC(C)(C)CC2)c1-c1ccc2c(c1)CCN(c1nccc(N3CCC(CCO)CC3)n1)C2 [Example 81, (S)-2-(tert-Butoxy)-2-(4-(4,4-dimethylpiperidin-1-yl)-5-(2-(4-(4-(2-hydroxyethyl)piperidin-1-yl)pyrimidin-2-yl)-1,2,3,4-tetrahydroisoquinolin-6-yl)-2,6-dimethylpyridin-3-yl)acetic Acid] the EC50 was 4 nM.
Cc1nc(C)c([C@H](OC(C)(C)C)C(=O)O)c(N2CCC(C)(C)CC2)c1-c1ccc2c(c1)CCN(c1cc(-c3cccc(Cl)c3)ncn1)C2 [Example 82, (S)-2-(tert-Butoxy)-2-(5-(2-(6-(3-chlorophenyl)pyrimidin-4-yl)-1,2,3,4-tetrahydroisoquinolin-6-yl)-4-(4,4-dimethylpiperidin-1-yl)-2,6-dimethylpyridin-3-yl)acetic Acid] showed an EC50 of 15 nM.
For Cc1nc(C)c([C@H](OC(C)(C)C)C(=O)O)c(N2CCC(C)(C)CC2)c1-c1ccc2c(c1)CCN(c1cc(N3CCOCC3)ccn1)C2 [Example 83, (S)-2-(tert-Butoxy)-2-(4-(4,4-dimethylpiperidin-1-yl)-2,6-dimethyl-5-(2-(4-morpholinopyridin-2-yl)-1,2,3,4-tetrahydroisoquinolin-6-yl)pyridin-3-yl)acetic Acid], the EC50 was 5 nM.
Cc1nc(C)c([C@H](OC(C)(C)C)C(=O)O)c(N2CCC(C)(C)CC2)c1-c1ccc2c(c1)CCN(c1nc(N3CCOCC3)nn3cccc13)C2 [Example 84, (S)-2-(tert-Butoxy)-2-(4-(4,4-dimethylpiperidin-1-yl)-2,6-dimethyl-5-(2-(2-morpholinopyrrolo[2,1-f][1,2,4]triazin-4-yl)-1,2,3,4-tetrahydroisoquinolin-6-yl)pyridin-3-yl)acetic Acid] was tested, and the EC50 was 6 nM.
Work on Cc1nc(C)c([C@H](OC(C)(C)C)C(=O)O)c(N2CCC(C)(C)CC2)c1-c1ccc2c(c1)CCN(c1ccnc(N3CCN(CCO)CC3)n1)C2 [Example 85, (S)-2-(tert-Butoxy)-2-(4-(4,4-dimethylpiperidin-1-yl)-5-(2-(2-(4-(2-hydroxyethyl)piperazin-1-yl)pyrimidin-4-yl)-1,2,3,4-tetrahydroisoquinolin-6-yl)-2,6-dimethylpyridin-3-yl)acetic Acid] yielded an EC50 of 39 nM.
Cc1nc(C)c([C@H](OC(C)(C)C)C(=O)O)c(N2CCC(C)(C)CC2)c1-c1ccc2c(c1)CCN(c1cc(N3CCOCC3)nc(N3CCOCC3)n1)C2 [Example 86, (S)-2-(tert-Butoxy)-2-(4-(4,4-dimethylpiperidin-1-yl)-5-(2-(2,6-dimorpholinopyrimidin-4-yl)-1,2,3,4-tetrahydroisoquinolin-6-yl)-2,6-dimethylpyridin-3-yl)acetic Acid] was tested, and the EC50 was 4 nM.
Cc1nc(C)c([C@H](OC(C)(C)C)C(=O)O)c(N2CCC(C)(C)CC2)c1-c1ccc2c(c1)CCN(c1cc(N3CCOCC3)cc(F)n1)C2 [Example 87, (S)-2-(tert-Butoxy)-2-(4-(4,4-dimethylpiperidin-1-yl)-5-(2-(6-fluoro-4-morpholinopyridin-2-yl)-1,2,3,4-tetrahydroisoquinolin-6-yl)-2,6-dimethylpyridin-3-yl)acetic Acid] gave an EC50 of 5 nM.
Cc1ccccc1-c1cccc(N2CCc3cc(-c4c(C)nc(C)c([C@H](OC(C)(C)C)C(=O)O)c4N4CCC(C)(C)CC4)ccc3C2)n1 [Example 88, (S)-2-(tert-Butoxy)-2-(4-(4,4-dimethylpiperidin-1-yl)-2,6-dimethyl-5-(2-(6-(o-tolyl)pyridin-2-yl)-1,2,3,4-tetrahydroisoquinolin-6-yl)pyridin-3-yl)acetic Acid] gave an EC50 of 25 nM.
